Where two headings read alike, the source gives them in different places.
Target: T1, BrF3′H (BrF3′H-8267) (Brassica rapa, UniProt M4CYL5)
T1 construct: full-length ORF, 511 residues, C-terminal V5 and 6xHis tags (pYES-DEST52); yeast WAT11 microsomes with Arabidopsis reductase ATR1 as redox partner
Test: HPLC of […]'-hydroxylation by yeast microsomes
Type: biochemical
Conditions: 1 mM NADPH, 100 mM Tris-Cl pH 7.5, 30°C, 20 min, 10 μg microsomal protein, Arabidopsis ATR1 reductase

T1 sequence (M4CYL5 entry or part of it): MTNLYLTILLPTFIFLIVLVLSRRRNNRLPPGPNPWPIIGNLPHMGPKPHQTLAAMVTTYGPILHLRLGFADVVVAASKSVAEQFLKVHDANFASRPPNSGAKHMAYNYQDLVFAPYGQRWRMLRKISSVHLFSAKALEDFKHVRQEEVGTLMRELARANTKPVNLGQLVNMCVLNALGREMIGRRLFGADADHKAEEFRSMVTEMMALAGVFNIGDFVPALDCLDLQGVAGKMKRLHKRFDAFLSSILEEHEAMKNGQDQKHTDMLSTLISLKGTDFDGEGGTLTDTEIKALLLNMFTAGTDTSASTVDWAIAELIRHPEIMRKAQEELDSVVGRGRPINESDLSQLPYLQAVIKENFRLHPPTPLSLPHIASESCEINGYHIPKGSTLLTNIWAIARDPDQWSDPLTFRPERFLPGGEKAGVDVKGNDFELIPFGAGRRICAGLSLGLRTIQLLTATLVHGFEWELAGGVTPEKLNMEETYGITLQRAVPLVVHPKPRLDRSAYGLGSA

O=C1c2c(O)cc(O)cc2OC(c2ccc(O)cc2)C1O (racemic) [DHK, dihydrokaempferol]
Km (read-out: Substrates / DHK): 3600 µM

O=C1CC(c2ccc(O)cc2)Oc2cc(O)cc(O)c21 (racemic) [Nar, naringenin]
Km (read-out: Substrates / Nar): 1720 ± 152 µM

O=c1c(O)c(-c2ccc(O)cc2)oc2cc(O)cc(O)c12 [K, kaempferol]
Km (read-out: Substrates / K): 942 ± 65 µM

Source: article PMC8693655, “Functional Characterization of BrF3'H, Which Determines the Typical Flavonoid Profile of Purple Chinese Cabbage” (Frontiers in Plant Science, 2021)
